Assay results published in US9198432B2, “1,2,4-triazolyl-substituted ketoenols” (BAYER INTELLECTUAL PROPERTY GMBH, priority 2011, dated 2015).

system: Lucilia cuprina larvae; assay: Lucilia cuprina (48 h) test; type: in vivo; details: 100 ppm, after 48 hours, treated horse meat
Description: Lucilia Cuprina (48 h) Solvent: dimethyl sulfoxide To produce a suitable preparation of active compound, 10 mg of active compound are mixed with 0.5 ml of dimethyl sulfoxide, and the concentrate is diluted with water to the desired concentration. Vessels containing horse meat treated with the active compound preparation of the desired concentration are populated with about 20 Lucilia cuprina larvae. After 48 hours, the kill in % is determined 100% means that all larvae have been killed; 0% means that no larvae have been killed.

Compound | efficacy (kill in %) [%]
Cn1nc(-c2ccc(Cl)cc2)nc1C1=C(O)C(C)(C)NC1=O [Example I-1-a1-3] | 90

system: greenhouse red spider mite (Tetranychus urticae); assay: Tetranychus spray test, OP-resistant (TETRUR); type: in vivo; details: 100 g/ha, after 6 days, bean leaf discs
Description: Tetranychus Spray Test, OP-resistant (TETRUR)
(§1) Solvents: 78.0 parts by weight of acetone • • 1.5 parts by weight of dimethylformamide
Emulsifer: 0.5 part by weight of alkylaryl polyglycol ether
(§2) To produce a suitable preparation of active compound, 1 part by weight of active compound is mixed with the stated amounts of solvent and emulsifier, and the concentrate is diluted with emulsifier-containing water to the desired concentration.
Discs of bean leaves (Phaseolus vulgaris) which are infested by all stages of the greenhouse red spider mite (Tetranychus urticae) are sprayed with an active compound preparation of the desired concentration.
After 6 days, the effect in % is determined 100% here means that all of the spider mites have been killed; 0% means that none of the spider mites have been killed.

Compound | efficacy (effect in %, spider mites killed) [%]
CC(C)n1nc(-c2ccc(Cl)cc2)nc1C1=C(O)C(C)(C)NC1=O [Example I-1-a1-9] | 90
CCON1CCC2(CC1)NC(=O)C(c1nc(-c3ccc(Cl)cc3)nn1C)=C2O [Example I-1-a9-3] | 90
CON1CCC2(CC1)NC(=O)C(c1nc(-c3ccc(Cl)cc3)nn1C)=C2O [Example I-1-a10-3] | 90
C=CCOC1CCC2(CC1)NC(=O)C(c1nc(-c3ccc(Cl)cc3)nn1C)=C2O (centres unmarked) [Example I-1-a11-3] | 90
Cn1nc(-c2ccc(Cl)cc2)nc1-c1c(O)n2n(c1=O)CCOCC2 [Example I-8-a3] | 90
CCn1nc(-c2ccc(F)cc2)nc1-c1c(O)n2n(c1=O)CCOCC2 [Example I-8-a5] | 90

same assay, conditions: 500 g/ha, after 6 days, bean leaf discs

Compound | efficacy (effect in %, spider mites killed) [%]
Cn1nc(-c2ccc(Cl)cc2)nc1C1=C(O)C(C)(C)NC1=O [Example I-1-a1-3] | 100
CCn1nc(-c2ccc(Cl)cc2)nc1C1=C(O)C(C)(C)NC1=O [Example I-1-a1-4] | 80
COC1CCC2(CC1)NC(=O)C(c1nc(-c3ccc(F)cc3)nn1C)=C2O (centres unmarked) [Example I-1-a2-1] | 100
COC1CCC2(CC1)NC(=O)C(c1nc(-c3ccc(Cl)cc3)nn1C)=C2O (centres unmarked) [Example I-1-a2-3] | 100
Cn1nc(-c2ccc(F)cc2)nc1C1=C(O)C2(CCOCC2)NC1=O [Example I-1-a3-1] | 100
CCn1nc(-c2ccc(Cl)cc2)nc1C1=C(O)C2CCCN2C1=O (centres unmarked) [Example I-1-a4-4] | 100
CCCOC1CCC2(CC1)NC(=O)C(c1nc(-c3ccc(Cl)cc3)nn1C)=C2O (centres unmarked) [Example I-1-a6-3] | 90
CC1CCC2(CC1)NC(=O)C(c1nc(-c3ccc(Cl)cc3)nn1C)=C2O (centres unmarked) [Example I-1-a7-3] | 90
Cn1nc(-c2ccc(Cl)cc2)nc1C1=C(O)C2(CCC(C(F)(F)F)CC2)NC1=O (centres unmarked) [Example I-1-a8-3] | 100

system: green peach aphid (Myzus persicae); assay: Myzus persicae spray test (MYZUPE); type: in vivo; details: 500 g/ha, after 6 days, Chinese cabbage disks
Description: Myzus persicae Spray Test (MYZUPE) Solvents: 78 parts by weight of acetone • • 1.5 parts by weight of dimethylformamide Emulsifier: 0.5 part by weight of alkylaryl polyglycol ether To produce a suitable preparation of active compound, 1 part by weight of active compound is mixed with the stated amounts of solvent and emulsifier, and the concentrate is diluted with emulsifier-containing water to the desired concentration. Disks of Chinese cabbage (Brassica pekinensis) infested by all stages of the green peach aphid (Myzus persicae) are sprayed with an active compound formulation of the desired concentration. After 6 days, the effect in % is determined 100% here means that all of the aphids have been killed; 0% means that none of the aphids have been killed.

Compound | efficacy (effect in %, aphids killed) [%]
CCn1nc(-c2ccc(Cl)cc2)nc1C1=C(O)C(C)(C)NC1=O [Example I-1-a1-4] | 80
COC1CCC2(CC1)NC(=O)C(c1nc(-c3ccc(F)cc3)nn1C)=C2O (centres unmarked) [Example I-1-a2-1] | 100
COC1CCC2(CC1)NC(=O)C(c1nc(-c3ccc(Cl)cc3)nn1C)=C2O (centres unmarked) [Example I-1-a2-3] | 100
COC1CCC2(CC1)NC(=O)C(c1nc(-c3ccccc3)nn1C)=C2O (centres unmarked) [Example I-1-a2-5] | 100
Cn1nc(-c2ccccc2)nc1C1=C(O)C2(CCOCC2)NC1=O [Example I-1-a3-5] | 100
CCCOC1CCC2(CC1)NC(=O)C(c1nc(-c3ccc(Cl)cc3)nn1C)=C2O (centres unmarked) [Example I-1-a6-3] | 90
CC1CCC2(CC1)NC(=O)C(c1nc(-c3ccc(Cl)cc3)nn1C)=C2O (centres unmarked) [Example I-1-a7-3] | 90
CCON1CCC2(CC1)NC(=O)C(c1nc(-c3ccc(Cl)cc3)nn1C)=C2O [Example I-1-a9-3] | 90
CON1CCC2(CC1)NC(=O)C(c1nc(-c3ccc(Cl)cc3)nn1C)=C2O [Example I-1-a10-3] | 90
C=CCOC1CCC2(CC1)NC(=O)C(c1nc(-c3ccc(Cl)cc3)nn1C)=C2O (centres unmarked) [Example I-1-a11-3] | 90
CC1COC2(CCC3(CC2)NC(=O)C(c2nc(-c4ccc(Cl)cc4)nn2C)=C3O)OC1 (centres unmarked) [Example I-1-a13-3] | 90
Cn1nc(-c2ccc(Cl)cc2)nc1-c1c(O)n2n(c1=O)CCOCC2 [Example I-8-a3] | 90

system: larvae of the mustard beetle (Phaedon cochleariae); assay: Phaedon cochleariae spray test (PHAECO); type: in vivo; details: 500 g/ha, after 7 days, Chinese cabbage leaf disks
Description: Phaedon Cochleariae Spray Test (PHAECO)
as §1
Emulsifier: 0.5 part by weight of alkylaryl polyglycol ether
as §2
After 7 days, the effect in % is determined 100% means that all beetle larvae have been killed; 0% means that none of the beetle larvae have been killed.

Compound | efficacy (effect in %, beetle larvae killed) [%]
CCCOC1CCC2(CC1)NC(=O)C(c1nc(-c3ccc(Cl)cc3)nn1C)=C2O (centres unmarked) [Example I-1-a6-3] | 100
